The values below come from US5229420A, “Ethereal N-terminal aminodiol amino acid derivatives as anti-hypertensive agents” (G. D. Searle & Co., priority 1991, dated 1993).

Each structure is given as a SMILES string. Where a SMILES comes first, the peptide text is derived from it. [ ]: non-standard residue; d: D form. The star is where a group is joined. Sta = CC(C)C[C@H](N)[C@@H](O)CC(=O)O; Isovaleryl = CC(C)CC(=O)*

One assay addresses T1, human renin (Homo sapiens, UniProt P00797).
T1 construct: purchased National Institute for Biological Standards, London
T1 sequence (P00797 67-406): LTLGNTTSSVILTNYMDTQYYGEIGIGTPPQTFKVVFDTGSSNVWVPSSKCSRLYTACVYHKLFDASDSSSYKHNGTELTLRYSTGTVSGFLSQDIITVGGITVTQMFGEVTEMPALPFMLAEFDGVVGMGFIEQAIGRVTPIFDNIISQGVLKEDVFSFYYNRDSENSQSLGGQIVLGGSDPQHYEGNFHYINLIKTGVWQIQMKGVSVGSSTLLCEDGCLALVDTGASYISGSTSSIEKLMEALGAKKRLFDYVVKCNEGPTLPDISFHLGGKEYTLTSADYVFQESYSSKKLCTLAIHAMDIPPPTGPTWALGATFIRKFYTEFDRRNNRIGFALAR
As to the kind of experiment: human renin inhibition test, in vitro (angiotensin I by radioimmunoassay). Type of assay: biochemical. To be noted: pH 7.4, 37° C., two hours. The procedure: Compounds of Formula I were evaluated as inhibitors of human renin in an in vitro assay, as follows: This human renin inhibition test has been previously described in detail [Papaioannou et al., Clinical and Experimental Hypertension, A7(9), 1243-1257 (1985)]. Human renin was obtained from the National Institute for Biological Standards, London. An incubation mixture was prepared containing in total volume of 0.25 mL 100 mM Tris-acetate buffer at pH 7.4, 25×10^-6 Goldblatt units of renin, 0.05 mL of plasma from human volunteers taking oral contraceptives,6.0 mM sodium EDTA, 2.4 mM phenylmethyl sulfonyl fluoride, 1.5 mM 8-hydroxyquinoline, 0.4 mg/mL BSA, and 0.024 mg/mL neomycin sulfate. This mixture was incubated for two hours at 37° C. in the presence or absence of renin inhibitors. The produced angiotensin I was determined by radioimmunoassay (New England Nuclear kit). Test compounds to be assayed were solubilized in DMSO and diluted with 100mM Tris-acetate buffer at pH 7.4 containing 0.5 % bovine serum albumin (BSA) to the appropriate concentration. The final concentration of organic solvent in the reaction mixture was less than 1%. Control incubations at 37° C. were used to correct for effects of organic solvent on renin activity.

A further assay relates to Plasma Renin Activity. As to the kind of experiment: Oral Effect of Compounds on Plasma Renin Activity in Sodium Depleted Marmoset. The class given is in vivo, Common marmosets (Callithrix jacchus). As to conditions: @ 1 h, 3 mg/kg dose. The procedure: The oral activity of compounds of Formula I was determined in vivo in Marmoset monkeys in accordance with the following procedure: Common marmosets (Callithrix jacchus, Charles River) were placed on a modified high protein low sodium diet (Purina, St. Louis, Mo.) for 1 to 2 weeks. On the day of the test an animal was anesthetized with isoflurane and cannulated in the femoral artery and vein for blood pressure monitoring, intravenous saralasin infusion and blood sampling. After allowing the animal to recover from surgery for 2 hr, saralasin was infused at 1 microgram/min for 15 minutes to confirm that the animal's blood pressure was dependent on angiotensin II levels. The marmoset was allowed to stabilize for 30 min after the saralasin infusion. The test compound was administered orally and blood pressure was monitored for 2 hr. Blood samples were taken in K-EDTA for plasma renin activity before, 30 min, and 1 hr after compound administration.

The next assay has as its system hog renin. To be noted: after injection of hog renin into nephrectomized rats; cited from earlier work.
In a further assay the test system is pepsin. As to conditions: cited from earlier work.
The subject of another assay is cathepsin D. To be noted: cited from earlier work.
A further assay relates to renin. As to conditions: cited from earlier work.

The IC50 is the point on the concentration scale where inhibition reaches its midpoint. By inhibition is commonly meant how much of the control response was suppressed. A high value points to a response far below the control.

At human renin, `COCCN(C)C(=O)O[C@@H](Cc1ccccc1)C(=O)N[C@@H](Cc1cnc[nH]1)C(=O)N[C@@H](CC1CCCCC1)[C@@H](O)[C@@H](O)CC(C)C` [Example 8, O-[N-methyl-N-(2-methoxyethyl)aminocarbonyl]-3-L-phenyllactyl-L-histidineamide of (2S,3R,4S)-2-amino-1-cyclohexyl-3,4-dihydroxy-6-methylheptane] registered an IC50 of 0.0012 µM. For the same molecule, the “% Reduction of Plasma Renin Activity” value in the assay on Plasma Renin Activity was found to be 99%. Regarding `COCCN(C)C(=O)O[C@@H](Cc1ccccc1)C(=O)N[C@@H](CC(C)C)C(=O)N[C@@H](CC1CCCCC1)[C@@H](O)[C@@H](O)CC(C)C` [Example 9, O-(N-methyl-N-(2-methoxyethyl)aminocarbonyl)-3-L-phenyllactyl-L-leucineamide of (2S,3R,4S)-2-amino-1-cyclohexyl-3,4-dihydroxy-6-methylheptane], it took 0.01 µM to reach half-maximal inhibition against human renin (IC50). Also, the “% Reduction of Plasma Renin Activity” value in the assay with Plasma Renin Activity is on record as 79%. As to `COCCN(C)C(=O)O[C@@H](Cc1ccccc1)C(=O)NC[C@@H](C)C(=O)N[C@@H](CC1CCCCC1)[C@@H](O)[C@@H](O)CC(C)C` [Example 13, O-(N-methyl-N-(2-methoxyethyl)aminocarbonyl)-3-L-phenyllactyl-α-(R)-methyl-β-alanineamide of (2S,3R,4S)-2-amino-1-cyclohexyl-3,4-dihydroxy-6-methylheptane], at human renin, the IC50 came out at 0.062 µM. `CC[C@H](CNC(=O)[C@H](CCc1ccccc1)CC(=O)N(C)CCOC)C(=O)N[C@@H](CC1CCCCC1)[C@@H](O)[C@@H](O)CC(C)C` [Example 15, 3-(N-methyl-N-(2-methoxyethyl)aminocarbonyl)-2-(R)-(2-phenylethyl)propionyl-α-(R)-ethyl-β-alanineamide of (2S,3R,4S)-2-amino-1-cyclohexyl-3,4-dihydroxy-6-methylheptane] displayed an inhibition at 0.05 µM against human renin (@ 5 × 10^-8 M) of 17%. Take `COCCN(C)C(=O)C[C@@H](CCc1ccccc1)C(=O)NC[C@@H](C)C(=O)N[C@@H](CC1CCCCC1)[C@@H](O)[C@@H](O)CC(C)C` [Example 16, 3-(N-methyl-N-(2-methoxyethyl)aminocarbonyl)-2-(R)-2-phenethylpropionyl-α-(R)-methyl-β-alanineamide of (2S,3R,4S)-2-amino-1-cyclohexyl-3,4-dihydroxy-6-methylheptane]: the IC50 against human renin worked out at 0.045 µM. With `CC(C)CC(=O)N[C@H](C(=O)N[C@H](C(=O)N[C@@H](CC(C)C)[C@@H](O)CC(=O)N[C@@H](C)C(=O)N[C@@H](CC(C)C)[C@@H](O)CC(=O)O)C(C)C)C(C)C` [pepstatin] (Isovaleryl-VV[Sta]A[Sta]-OH), the “reduction of blood pressure in vivo” value in the assay with hog renin is “found to reduce blood pressure in vivo”. Besides, the “inhibition of pepsin (in words)” value with pepsin is recorded as “inhibitor of aspartyl proteases such as pepsin”. Besides, the “inhibition of cathepsin D (in words)” value in the assay with cathepsin D was “inhibitor of aspartyl proteases such as pepsin, cathepsin D”. For the same molecule, the “inhibition of renin (in words)” value in the assay with renin was “inhibitor of aspartyl proteases such as pepsin, cathepsin D and renin”.
